Numbered stars: 1 amine (or outer) side, 2 acyl side, 3 side chain; on linkers, the order of the positions; unused ones are H or OH. Bridge positions count the residues as written; N and C are the ends. Peptide text beside a SMILES is read from it. Suc = O=C(CCC(=O)[*:2])[*:1]
System: calcium concentration in the serum
Assay: Test 1: reduction of calcium level in serum after tail vein administration to rats
Assay type: in vivo, rats of the Wistar strain
Conditions: 1 ml/kg tail vein, female Wistar rats
Procedure: Six-weeks-old female rats of the Wistar strain (each group consisting of 4 rats) were used as the test animal, and the peptides of the present invention obtained in the examples given hereinafter were tested at concentrations adjusted with a 1% aqueous solution of sodium acetate (pH 4,0) to which 0.1% bovine serum albumin (BSA) was added. The solution was adjusted to a concentration of 166 μg/ml 830 ng/ml or 83 ng/ml and administered with the tail vein in an amount of 1 ml/kg. The back of the rat was fixed and blood was collected just before the administration, and at predetermined intervals after the administration, from the neck vein. The amount of blood collected each time was 0.3 ml. The sampled blood was subjected to centrifugal separation at 3500 rpm for 20 minutes to separate serum and the calcium content in the separated serum was measured by TBA-380 (supplied by Toshiba) using a Wako calcium-measuring kit (o-cpc method), and the ratio of reduction of the calcium concentration in the serum was determined.

[1] = concentration 83 ng/ml, 0 hour (just before administration)
[2] = concentration 83 ng/ml, 2 hours
[3] = concentration 83 ng/ml, 4 hours
[4] = concentration 83 ng/ml, 6 hours
[5] = concentration 830 ng/ml, 0 hour (just before administration)
[6] = concentration 830 ng/ml, 1 hour
[7] = concentration 830 ng/ml, 2 hours
[8] = concentration 830 ng/ml, 4 hours
[9] = concentration 830 ng/ml, 6 hours

Row | SMILES | Serum calcium level as percent of pre-dose baseline [1] [%] | Serum calcium level as percent of pre-dose baseline (concentration 83 ng/ml, 1 hour) [%] | Serum calcium level as percent of pre-dose baseline [2] [%] | Serum calcium level as percent of pre-dose baseline [3] [%] | Serum calcium level as percent of pre-dose baseline [4] [%] | Serum calcium level as percent of pre-dose baseline [5] [%] | Serum calcium level as percent of pre-dose baseline [6] [%] | Serum calcium level as percent of pre-dose baseline [7] [%] | Serum calcium level as percent of pre-dose baseline [8] [%] | Serum calcium level as percent of pre-dose baseline [9] [%]
1 | CC[C@H](C)[C@H](NC(=O)[C@H](C)NC(=O)[C@@H](NC(=O)[C@H](CCC(N)=O)NC(=O)[C@@H]1CCCN1C(=O)[C@H](Cc1ccc(O)cc1)NC(=O)[C@@H](NC(=O)[C@H](CCC(N)=O)NC(=O)[C@H](CC(C)C)NC(=O)[C@H](CCCCN)NC(=O)[C@H](Cc1c[nH]cn1)NC(=O)[C@H](CC(C)C)NC(=O)[C@H](CCC(=O)O)NC(=O)[C@H](CCC(N)=O)NC(=O)[C@H](CO)NC(=O)[C@H](CC(C)C)NC(=O)[C@H](CCCCN)NC(=O)CNC(=O)[C@H](CC(C)C)NC(=O)[C@H](CC(C)C)NC(=O)[C@@H]1CSSC[C@H](N)C(=O)NCC(=O)N[C@@H](CC(N)=O)C(=O)N[C@@H](CC(C)C)C(=O)N[C@@H](CO)C(=O)N[C@@H]([C@@H](C)O)C(=O)N1)[C@@H](C)O)[C@@H](C)O)C(=O)NCC(=O)N[C@H](C(=O)NCC(=O)N[C@@H](C)C(=O)N1CCC[C@H]1C(N)=O)C(C)C [Peptide No. 13] (H-CGNLSTCLLGKLSQELHKLQTYPQTAIGVGAP-NH2; disulfide 1-7) | 100.0 | 68.9 | 70.5 | 84.4 | 86.8 | 100.0 | 71.3 | 62.7 | 58.3 | 61.8
2 | CC[C@H](C)[C@H](NC(=O)[C@H](C)NC(=O)[C@@H](NC(=O)[C@H](CCC(N)=O)NC(=O)[C@@H]1CCCN1C(=O)[C@H](Cc1ccc(O)cc1)NC(=O)[C@@H](NC(=O)[C@H](CCC(N)=O)NC(=O)[C@H](CC(C)C)NC(=O)[C@H](CCCCN)NC(=O)[C@H](Cc1c[nH]cn1)NC(=O)[C@H](CC(C)C)NC(=O)[C@H](CCC(=O)O)NC(=O)[C@H](CCC(N)=O)NC(=O)[C@H](CO)NC(=O)[C@H](CC(C)C)NC(=O)[C@H](CCCCN)NC(=O)CNC(=O)[C@H](CC(C)C)NC(=O)[C@H](CCSC)NC(=O)[C@@H]1CCCCNC(=O)C[C@H](N)C(=O)N[C@@H](CC(N)=O)C(=O)N[C@@H](CC(C)C)C(=O)N[C@@H](CO)C(=O)N[C@@H]([C@@H](C)O)C(=O)N1)[C@@H](C)O)[C@@H](C)O)C(=O)NCC(=O)N[C@H](C(=O)NCC(=O)N[C@@H](C)C(=O)N1CCC[C@H]1C(N)=O)C(C)C [Peptide No. 23] (H-DNLSTKMLGKLSQELHKLQTYPQTAIGVGAP-NH2; lactam 1-6) | 100.0 | 73.6 | 72.2 | 83.3 | 82.4 | 100.0 | 68.5 | 61.6 | 56.9 | 71.1
3 | CC[C@H](C)[C@H](NC(=O)[C@H](C)NC(=O)[C@@H](NC(=O)[C@H](CCC(N)=O)NC(=O)[C@@H]1CCCN1C(=O)[C@H](Cc1ccc(O)cc1)NC(=O)[C@@H](NC(=O)[C@H](CCC(N)=O)NC(=O)[C@H](CC(C)C)NC(=O)[C@H](CCCCN)NC(=O)[C@H](Cc1c[nH]cn1)NC(=O)[C@H](CC(C)C)NC(=O)[C@H](CCC(=O)O)NC(=O)[C@H](CCC(N)=O)NC(=O)[C@H](CO)NC(=O)[C@H](CC(C)C)NC(=O)[C@H](CCCCN)NC(=O)CNC(=O)[C@H](CC(C)C)NC(=O)[C@H](CC(C)C)NC(=O)[C@@H]1CCCCNC(=O)C[C@H](N)C(=O)N[C@@H](CC(N)=O)C(=O)N[C@@H](CC(C)C)C(=O)N[C@@H](CO)C(=O)N[C@@H]([C@@H](C)O)C(=O)N1)[C@@H](C)O)[C@@H](C)O)C(=O)NCC(=O)N[C@H](C(=O)NCC(=O)N[C@@H](C)C(=O)N1CCC[C@H]1C(N)=O)C(C)C [Peptide No. 24] (H-DNLSTKLLGKLSQELHKLQTYPQTAIGVGAP-NH2; lactam 1-6) | 100.0 | 71.1 | 70.7 | 85.6 | 80.1 | 100.0 | 69.1 | 61.9 | 54.4 | 53.0
4 | CC[C@H](C)[C@H](NC(=O)[C@H](C)NC(=O)[C@@H](NC(=O)[C@H](CCC(N)=O)NC(=O)[C@@H]1CCCN1C(=O)[C@H](Cc1ccc(O)cc1)NC(=O)[C@@H](NC(=O)[C@H](CCC(N)=O)NC(=O)[C@H](CC(C)C)NC(=O)[C@H](CCCCN)NC(=O)[C@H](Cc1c[nH]cn1)NC(=O)[C@H](CC(C)C)NC(=O)[C@H](CCC(=O)O)NC(=O)[C@H](CCC(N)=O)NC(=O)[C@H](CO)NC(=O)[C@H](CC(C)C)NC(=O)[C@H](CCCCN)NC(=O)CNC(=O)[C@H](CC(C)C)NC(=O)[C@H](CC(C)C)NC(=O)[C@@H]1CCCCNC(=O)C[C@H](NC(C)=O)C(=O)N[C@@H](CC(N)=O)C(=O)N[C@@H](CC(C)C)C(=O)N[C@@H](CO)C(=O)N[C@@H]([C@@H](C)O)C(=O)N1)[C@@H](C)O)[C@@H](C)O)C(=O)NCC(=O)N[C@H](C(=O)NCC(=O)N[C@@H](C)C(=O)N1CCC[C@H]1C(N)=O)C(C)C [Peptide No. 25] (Ac-DNLSTKLLGKLSQELHKLQTYPQTAIGVGAP-NH2; lactam 1-6) | 100.0 | 76.9 | 67.6 | 66.7 | 71.3 | 100.0 | 73.4 | 64.3 | 51.8 | 44.3
5 | CC[C@H](C)[C@H](NC(=O)[C@H](C)NC(=O)[C@@H](NC(=O)[C@H](CCC(N)=O)NC(=O)[C@@H]1CCCN1C(=O)[C@H](Cc1ccc(O)cc1)NC(=O)[C@@H](NC(=O)[C@H](CCC(N)=O)NC(=O)[C@H](CC(C)C)NC(=O)[C@H](CCCCN)NC(=O)[C@H](Cc1c[nH]cn1)NC(=O)[C@H](CC(C)C)NC(=O)[C@H](CCC(=O)O)NC(=O)[C@H](CCC(N)=O)NC(=O)[C@H](CO)NC(=O)[C@H](CC(C)C)NC(=O)[C@H](CCCCN)NC(=O)CNC(=O)[C@H](CC(C)C)NC(=O)[C@H](CC(C)C)NC(=O)[C@@H]1CCCCNC(=O)CCC(=O)N[C@@H](CC(N)=O)C(=O)N[C@@H](CC(C)C)C(=O)N[C@@H](CO)C(=O)N[C@@H]([C@@H](C)O)C(=O)N1)[C@@H](C)O)[C@@H](C)O)C(=O)NCC(=O)N[C@H](C(=O)NCC(=O)N[C@@H](C)C(=O)N1CCC[C@H]1C(N)=O)C(C)C [Peptide No. 26] (NLSTKLLGKLSQELHKLQTYPQTAIGVGAP-NH2; linker N-5 via Suc) | 100.0 | 78.9 | 67.6 | 70.4 | 75.2 | 100.0 | 73.9 | 62.9 | 52.1 | 48.2
6 | CC[C@H](C)[C@H](NC(=O)[C@H](C)NC(=O)[C@@H](NC(=O)[C@H](CCC(N)=O)NC(=O)[C@@H]1CCCN1C(=O)[C@H](Cc1ccc(O)cc1)NC(=O)[C@@H](NC(=O)[C@H](CCC(N)=O)NC(=O)[C@H](CC(C)C)NC(=O)[C@H](CCCCN)NC(=O)[C@H](Cc1c[nH]cn1)NC(=O)[C@H](CC(C)C)NC(=O)[C@H](CCC(=O)O)NC(=O)[C@H](CCC(N)=O)NC(=O)[C@H](CO)NC(=O)[C@H](CC(C)C)NC(=O)[C@H](CCCCN)NC(=O)CNC(=O)[C@H](CC(C)C)NC(=O)[C@H](CCSC)NC(=O)[C@@H]1CC(=O)NCCCC[C@H](N)C(=O)N[C@@H](CC(N)=O)C(=O)N[C@@H](CC(C)C)C(=O)N[C@@H](CO)C(=O)N[C@@H]([C@@H](C)O)C(=O)N1)[C@@H](C)O)[C@@H](C)O)C(=O)NCC(=O)N[C@H](C(=O)NCC(=O)N[C@@H](C)C(=O)N1CCC[C@H]1C(N)=O)C(C)C [Peptide No. 27] (H-KNLSTDMLGKLSQELHKLQTYPQTAIGVGAP-NH2; lactam 1-6) | 100.0 | 93.5 | 94.3 | 86.4 | 82.7 | 100.0 | 79.5 | 94.1 | 87.0 | 82.9
